Tests used:
Format in all cases: physicochemical
[1] = Measuring absorption maximum of the optical absorbent in chloroform; settings: about 10^−5 M
Description: 1. Measuring Absorption Maximum
The absorption maximum was evaluated by a conventional method. Specifically, the sample was dissolved in a chloroform solvent at a concentration of about 10^−5 M and then evaluated by using a measuring instrument (Agilent, Varian Cary 4000).

[2] = Measuring solubility of the optical absorbent in methylene chloride; settings: room temperature (about 25° C.)
Description: 3. Measuring Solubility The solubility of the optical absorbent was evaluated. Solubility was determined according to the following criteria by evaluating the solubility of the optical absorbent in the solvent (MC, Methylene Chloride) at room temperature (about 25° C.). <Solubility Criteria> • A: When the solubility is 1% by mass or more. • B: When the solubility is 0.5% by mass or more and less than 1% by mass. • C: When the solubility is 0.2% by mass or more and less than 0.5% by mass. • D: When the solubility is less than 0.2% by mass. 4. Pyrolysis Temperature (Td 5%) Analysis

[3] = Pyrolysis temperature (Td 5%) analysis by TGA; settings: 25° C. to 800° C., 10° C./min, nitrogen 60 cm^3/min
Description: The Td 5% is a value obtained through Thermogravimetric Analysis (TGA). It is a value (Td 5%) at the weight loss of 95% confirmed in a temperature range of 25° C. to 800° C., with a heating rate of 10° C./min and under nitrogen (N2) atmosphere condition of 60 cm^3/min.
Thermogravimetric analysis (TGA) was performed by using TGA N-1000 equipment manufactured by Scinco Co. The analysis was performed by using about 3 mg of the sample (optical absorbent) and the analysis was conducted at a temperature range of 25° C. to 800° C., with a temperature increase rate of 10° C./min, and under 60 cm^3/min of a nitrogen (N2) atmosphere. As for the Td pyrolysis temperature, the value(Td 5%) at 95% weight loss was used.

[4] = Test Example 1: transmittance of optical absorption film before and after reliability evaluation (85° C., 85% relative humidity, 120 hours); settings: for Tave 425~465 nm, Δ / Tave 466~480 nm, Δ / Tave 480~560 nm, Δ / Tmin 425~465 nm, Δ / Tmin 466~480 nm, Δ / Λmax Tmax, Δ: change rate 100×(A−B)/B; for Tmin 425~465 nm, B: silicone resin film about 6 μm; for Tmin 425~465 nm, B / Tmin 425~465 nm, A / Tmin 466~480 nm, A / Tmin 466~480 nm, B: minimum transmittance; for Tmin 425~465 nm, B / Tave 425~465 nm, B / Tave 466~480 nm, B / Tave 480~560 nm, B / Tmin 466~480 nm, B: before reliability evaluation; for Tave 425~465 nm, A / Tave 466~480 nm, A / Tave 480~560 nm, A / Tave 425~465 nm, B / Tave 466~480 nm, B / Tave 480~560 nm, B / Tmin 425~465 nm, A / Tmin 466~480 nm, A / Tmin 466~480 nm, B: silicone resin film; for Tave 425~465 nm, A / Tave 466~480 nm, A / Tave 480~560 nm, A / Tave 425~465 nm, B / Tave 466~480 nm, B / Tave 480~560 nm, B: average transmittance; for Tave 425~465 nm, A / Tave 466~480 nm, A / Tave 480~560 nm, A / Tmin 425~465 nm, A / Tmin 466~480 nm, A: after 85° C., 85% relative humidity, 120 hours
Description: 2. Evaluation of Transmittance Spectrum
The transmittance spectrum was measured by using a spectrophotometer (Manufacturer: Perkinelmer Co., Product Name: Lambda 750 Spectrophotometer) for a specimen obtained by cutting the measurement subject (e.g., an optical absorption film) to 10 mm and 10 mm in width and length, respectively. The transmittance spectrum was measured for each wavelength and incident angle according to the manual of the equipment. The specimen was placed on a straight line between the measuring beam and the detector of the spectrophotometer, and the transmittance spectrum was checked while changing the incident angle of the measuring beam from 0° to 40°. Unless specifically stated otherwise, the result of the transmittance spectrum in this embodiment was the result when the incident angle is 0°. The incident angle of 0° is a direction substantially parallel to the direction normal to the surface of the specimen.
The average transmittance within a predetermined wavelength region in the transmittance spectrum was the result of measuring the transmittance of each wavelength while increasing the wavelength by 1 nm from the shortest wavelength in the wavelength region, and then calculating the arithmetic average of the measured transmittance. The maximum transmittance is the maximum one among the transmittance measured while increasing the wavelength by 1 nm. For example, the average transmittance within the wavelength range of 350 nm to 360 nm is the arithmetic average of transmittances measured at wavelengths of 350 nm, 351 nm, 352 nm, 353 nm, 354 nm, 355 nm, 356 nm, 357 nm, 358 nm, 359 nm and 360 nm and the maximum transmittance within the wavelength range of 350 nm to 360 nm is the highest transmittance among transmittances measured at wavelengths of 350 nm, 351 nm, 352 nm, 353 nm, 354 nm, 355 nm, 356 nm, 357 nm, 358 nm, 359 nm and 360 nm.
(§1) A coating solution was prepared by mixing a silicone resin (Dow Chemical, RSN-0217) as a resin component, an optical absorbent, and a solvent (Cyclohexanone). The mixing ratio of the resin component, the optical absorbent and the solvent was 69.3:0.99:29.7 in weight ratio (Resin:Optical Absorbent:Solvent).
(§2) The coating solution was coated on a transparent substrate (a glass substrate manufactured by SCHOTT Co.) and maintained at 140° C. for about 2 hours to form an optical absorption film having a thickness of about 6 μm. The optical absorbent of Embodiment 1, Embodiment 2 or Comparative Example 1 was used as the optical absorbent.
Table 2 below summarizes the transmittance of the optical absorption film before and after reliability evaluation in the ultraviolet and the near infrared regions. The reliability evaluation is an evaluation of the optical absorption film maintained at 85° C. and 85% relative humidity for 120 hours. In Table 2, B means the result before performing the reliability evaluation, and A means the result after performing the reliability evaluation. In addition, in Table 2, Λmax means the transmittance at the absorption maximum.
In Table 2, Δ is the change rate (%) of each characteristic before and after the reliability evaluation and it is a result calculated as 100×(A−B)/B, where A is a numerical value indicated under column A in Table 2, and B is a numerical value indicated under column B in Table 2. In Table 2, Tmax denotes the highest transmittance within a corresponding wavelength range, Tave denotes an average transmittance within a corresponding wavelength range, and Tmin denotes a minimum transmittance within a corresponding wavelength range.

[5] = Test Example 2: absorption maximum of optical absorption film before and after high temperature and high humidity evaluation; settings: for ΔA: 100×(Af−Ai)/Ai; for Δλ: 100×(λf−λi)/λi; for Ai (transmittance at the absorption maximum wavelength) / λi (absorption maximum wavelength): optical absorption film before being maintained at 85° C.; for Af (transmittance at the absorption maximum wavelength) / λf (absorption maximum wavelength): optical absorption film maintained at 85° C.
Description: as §1, §2
For the optical absorption film prepared in Test Example 1, the absorbance spectrum of the optical absorption film prepared by using the optical absorbent of Embodiment 1 is shown in FIG. 7, the absorbance spectrum of the optical absorption film prepared by using the optical absorbent of Embodiment 2 is shown in FIG. 8, and the absorbance spectrum of the optical absorption film prepared by using the optical absorbent of Comparative Example 1 is shown in FIG. 9. In FIGS. 7 to 9, A-1, A-2, and A-3 indicate evaluations of the optical absorption films of Embodiments 1 and 2 and Comparative Example 1, respectively. […] The high-temperature and high-humidity evaluation is an evaluation where the optical absorption film is maintained at a temperature of 85° C. and under a relative humidity of 85% for 120 hours.
In Table 3, Af is the transmittance at the absorption maximum wavelength of the optical absorption film maintained at 85° C. temperature and under 85% relative humidity for 120 hours, λf is the absorption maximum wavelength at this time, and Ai is the transmittance at the absorption maximum wavelength of the optical absorption film before being maintained at 85° C. temperature and under 85% relative humidity for 120 hours. λi is the absorption maximum wavelength at this time.
In Table 3, ΔA is a value calculated as 100×(Af−Ai)/Ai and Δλ is a value calculated as 100×(λf−λi)/λi.

[6] = 85% relative humidity, 120 hours

C/C(C1=Nc2ccc([Si](C)(C)C)cc2C1(C)C)=C1/C(=O)C(C(/C)=C2/Nc3ccc([Si](C)(C)C)cc3C2(C)C)=C1O [Comparative Example 1, reference compound]
Absorption Maximum Wavelength [1]: 738 nm | Absorption Maximum Wavelength ([1]; listed as A3): about 738 nm | Solubility [2]: A (When the solubility is 1% by mass or more) | Td 5% (5% pyrolysis temperature) [3]: 187 °C | Tave 425~465 nm, Δ [4]: 0% | Tave 466~480 nm, Δ [4]: −0.1% | Tave 480~560 nm, Δ [4]: −0.1% | Tmin 425~465 nm, Δ [4]: 0.3% | Tmin 466~480 nm, Δ [4]: −0.1% | Λmax Tmax, Δ [4]: 34.7% | Tmin 425~465 nm, B [4]: 91.35 | Tave 425~465 nm, A [4]: 92.03 | Tave 466~480 nm, A [4]: 92.07 | Tave 480~560 nm, A [4]: 92.27 | Tave 425~465 nm, B [4]: 91.99 | Tave 466~480 nm, B [4]: 92.14 | Tave 480~560 nm, B [4]: 92.32 | Tmin 425~465 nm, A [4]: 91.62 | Tmin 466~480 nm, A [4]: 91.76 | Tmin 466~480 nm, B [4]: 91.84 | ΔA [5]: 36.7% | Δλ [5]: 24.4% | Ai (transmittance at the absorption maximum wavelength) [5, 6]: 66.3% | λi (absorption maximum wavelength) [5, 6]: 731 nm | Af (transmittance at the absorption maximum wavelength) [5, 6]: 90.6% | λf (absorption maximum wavelength) [5, 6]: 909 nm | light absorption characteristics before and after high temperature and high humidity ([5]; optical absorption film, 85° C., 85% relative humidity, 120 hours, FIGS. 7 to 9): almost lost

CC1N(CCC[Si](C)(C)C)c2ccc(C3=C([O-])/C(=c4\ccc5c(c4)C(C)(C)C(C)[N+]=5CCC[Si](C)(C)C)C3=O)cc2C1(C)C (stereo not shown) [Embodiment 1]
Absorption Maximum Wavelength [1]: 652 nm | Absorption Maximum Wavelength ([1]; listed as A1): about 652 nm | Solubility [2]: A (When the solubility is 1% by mass or more) | Td 5% (5% pyrolysis temperature) [3]: 247 °C | Tave 425~465 nm, Δ [4]: −0.3% | Tave 466~480 nm, Δ [4]: −0.1% | Tave 480~560 nm, Δ [4]: −0.1% | Tmin 425~465 nm, Δ [4]: −0.2% | Tmin 466~480 nm, Δ [4]: 0% | Λmax Tmax, Δ [4]: 8.2% | Tmin 425~465 nm, B [4]: 89.64 | Tave 425~465 nm, A [4]: 90.26 | Tave 466~480 nm, A [4]: 89.58 | Tave 480~560 nm, A [4]: 91.06 | Tave 425~465 nm, B [4]: 90.49 | Tave 466~480 nm, B [4]: 89.64 | Tave 480~560 nm, B [4]: 91.17 | Tmin 425~465 nm, A [4]: 89.42 | Tmin 466~480 nm, A [4]: 89.10 | Tmin 466~480 nm, B [4]: 89.06 | ΔA [5]: 8.2% | Δλ [5]: 0% | Ai (transmittance at the absorption maximum wavelength) [5, 6]: 6.12% | λi (absorption maximum wavelength) [5, 6]: 658 nm | Af (transmittance at the absorption maximum wavelength) [5, 6]: 6.62% | λf (absorption maximum wavelength) [5, 6]: 658 nm

CC1N(CCC[Si](C)(C)C)c2c(cc(C3=C([O-])/C(=c4/cc5c(c6ccccc46)=[N+](CCC[Si](C)(C)C)C(C)C5(C)C)C3=O)c3ccccc23)C1(C)C (stereo not shown) [Embodiment 2]
Absorption Maximum Wavelength [1]: 772 nm | Absorption Maximum Wavelength ([1]; listed as A2): about 772 nm | Solubility [2]: A (When the solubility is 1% by mass or more) | Td 5% (5% pyrolysis temperature) [3]: 260 °C | Tave 425~465 nm, Δ [4]: −0.2% | Tave 466~480 nm, Δ [4]: 0% | Tave 480~560 nm, Δ [4]: −0.1% | Tmin 425~465 nm, Δ [4]: −0.3% | Tmin 466~480 nm, Δ [4]: 0.1% | Λmax Tmax, Δ [4]: 7% | Tmin 425~465 nm, B [4]: 88.75 | Tave 425~465 nm, A [4]: 89.72 | Tave 466~480 nm, A [4]: 88.64 | Tave 480~560 nm, A [4]: 90.86 | Tave 425~465 nm, B [4]: 89.87 | Tave 466~480 nm, B [4]: 88.61 | Tave 480~560 nm, B [4]: 90.93 | Tmin 425~465 nm, A [4]: 88.52 | Tmin 466~480 nm, A [4]: 87.95 | Tmin 466~480 nm, B [4]: 87.88 | ΔA [5]: 6.8% | Δλ [5]: 0% | Ai (transmittance at the absorption maximum wavelength) [5, 6]: 8.91% | λi (absorption maximum wavelength) [5, 6]: 765 nm | Af (transmittance at the absorption maximum wavelength) [5, 6]: 9.52% | λf (absorption maximum wavelength) [5, 6]: 765 nm

Source: patent US12566283B2, “Optical absorbent” (LMS CO., LTD., priority 2022, dated 2026)
